# According to paper PMC8657912, “Substrate-Dependent Trans-Stimulation of Organic Cation Transporter 2 Activity” (International Journal of Molecular Sciences, 2021):
# Where two headings read alike, the source gives them in different places.
# Tests used:
# [1] = target: T1, human OCT2 (Homo sapiens, UniProt O15244); experiment: Uptake trans-stimulation assay of OCT2-mediated DiASP uptake in HEK-OCT2 cells; format: cell-based; design: host or cells: HEK293 (HEK-OCT2); conditions: for Trans-modulation of OCT2-mediated DiASP uptake (in words): HEK-OCT2 cells preloaded 30 min with substrate, 0.01–10 mM or 0.1–100 µM range
# T1 sequence (O15244 1-555): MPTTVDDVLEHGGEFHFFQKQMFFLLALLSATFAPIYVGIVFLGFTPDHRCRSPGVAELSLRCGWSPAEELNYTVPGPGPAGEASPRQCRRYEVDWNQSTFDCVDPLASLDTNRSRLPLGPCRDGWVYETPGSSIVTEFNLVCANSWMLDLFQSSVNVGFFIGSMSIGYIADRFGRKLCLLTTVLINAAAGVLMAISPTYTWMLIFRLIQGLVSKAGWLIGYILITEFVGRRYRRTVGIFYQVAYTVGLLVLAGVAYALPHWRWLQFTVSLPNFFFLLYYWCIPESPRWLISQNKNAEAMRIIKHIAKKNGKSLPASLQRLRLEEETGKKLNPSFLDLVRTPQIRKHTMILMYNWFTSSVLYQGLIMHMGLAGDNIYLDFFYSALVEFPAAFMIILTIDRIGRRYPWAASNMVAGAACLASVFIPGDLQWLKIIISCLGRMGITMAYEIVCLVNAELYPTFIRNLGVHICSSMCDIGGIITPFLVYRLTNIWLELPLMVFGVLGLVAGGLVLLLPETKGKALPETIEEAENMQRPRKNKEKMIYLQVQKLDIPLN
# Method: Uptake trans-stimulation assays were performed as schematically depicted in Figure 4.
# Figure 4 Schematic representation of the various steps of the trans-stimulation assay performed for investigating OCT2 substrates (created with biorender.com). Step 1 corresponds to the initial incubation of cells without (Control) or with candidate substrate for 30 min at 37 °C. Step 2 consists of the incubation of cells with the reference tracer substrate (DiASP) for 5 min at 37 °C. Step 3 is the measurement of cellular accumulation of DiASP through spectrofluorimetry.
# (§1) They were cultured in Dulbecco’s modified Eagle medium (DMEM) (Life Technologies, Carlsbad, CA, USA), supplemented with 10% (vol/vol) fetal calf serum, 10 IU/mL penicillin, 10 μg/mL streptomycin, 1% non-essential amino acids, and 1 μg/mL insulin, as already reported.
# OCT2 trans-stimulation assays were performed through monitoring cellular uptake of the tracer substrate DiASP. As schematically depicted in Figure 4, HEK-OCT2 cells were first incubated in the absence (control) or presence of different concentrations of OCT2 substrates for 30 min at 37 °C in the transport assay medium described above. After washing with PBS, cells were re-incubated with 10 µM DiASP for 5 min. Cellular accumulation of the fluorescence dye was next determined by spectrofluorimetry, as reported above. Data were commonly expressed as % of DiASP uptake in control cells, set at 100%, or as fluorescence arbitrary units (FAU)/mg protein.
# [2] = target: T1, human OCT2; experiment: Cis-inhibition of OCT2-mediated DiASP uptake in HEK-OCT2 cells
# Method: as §1
# Cis-inhibition of OCT2 activity was analysed as previously described. Briefly, HEK-OCT2 cells were incubated with 10 µM DiASP, in the absence (control) of the presence of 100 µM amitriptyline (used here as a reference inhibitor of OCT2 activity) or of various concentrations of the OCT2 substrates, for 5 min. The transport assay medium consisted of 5.3 mM KCl, 1.1 mM KH2PO4, 0.8 mM MgSO4, 1.8 mM CaCl2, 11 mM dextrose, 10 mM HEPES, and 136 mM NaCl, adjusted to pH = 7.4. Next, cells were washed with phosphate-buffered saline (PBS) and lysed in distilled water. Intracellular accumulation of DiASP was then determined by spectrofluorimetry using a PerkinElmer Enspire spectrofluorometer (Waltham, MA, USA); excitation and emission wavelengths were 485 nm and 607 nm, respectively. DiASP accumulation values were thereafter normalized to total protein content, determined by the Bradford method.
# IC50 values of OCT2 substrates towards OCT2-mediated uptake of DiASP and the corresponding 95% confidence intervals were determined from nonlinear regression of concentration-response data, based on the four-parameter logistic function. They were calculated using Prism 9.3 software (GraphPad Software, San Diego, CA, USA), through the following Equation (2):(2) A = 100/1 + 10^OCT2 substrate − LogIC50 × Hill slope where A = the percentage of transporter activity for a given concentration of OCT2 substrate determined as described in Equation (1), [OCT2 substrate] = OCT2 substrate concentration in the transport assay medium, and Hill slope = a coefficient describing the steepness of the curve.
# [3] = system: OCT3 (SLC22A3); design: method as in PMID 12538837; conditions: cited from earlier work
# [4] = system: OCT2; conditions: cited from earlier work; for Trans-stimulation of OCT2 activity: radiolabelled MPP+ as tracer substrate; for Trans-stimulation of OCT2-mediated MPP+ uptake: MPP+ as tracer
# [5] = system: HEK-MOCK cells; experiment: Trans-stimulation assay of DiASP uptake in control HEK-MOCK cells; format: cell-based, human; conditions: data not shown
# [6] = HEK-OCT2 cells preloaded 30 min 37 °C, washed, then 10 µM DiASP 5 min
# [7] = read-out: IC50 towards OCT2-mediated uptake of DiASP (cis-inhibition), HEK-OCT2 cells, 10 µM DiASP, 5 min, 37 °C, 95% CI in brackets
Structure (SMILES),Trans-modulation of OCT2-mediated DiASP uptake (in words) [1],IC50 [2] [µM],"Lowest trans-inhibiting concentration towards DiASP uptake [1, 6] [mM]",also measured
"CC(=O)OCC[N+](C)(C)C [Acetylcholine, acetylcholine]",trans-stimulate,530,–,–
"NCCCCN=C(N)N [Agmatine, agmatine]",trans-stimulate,410,10,"Loading concentration that significantly trans-stimulates DiASP uptake [1, 6]: 0.1 mM; Trans-stimulation of OCT3 activity [3]: trans-stimulate"
"CCN1CCCC1CNC(=O)c1cc(S(=O)(=O)CC)c(N)cc1OC (centres unmarked) [Amisulpride, amisulpride]",–,40,–,–
"C[N+](C)(C)CCO [Choline, choline]",trans-stimulate,1330,–,"Loading concentration that significantly trans-stimulates DiASP uptake [1, 6]: 1 mM; Trans-stimulation of OCT2 activity [4]: trans-stimulate"
"CN/C(=N/CCSCc1nc[nH]c1C)NC#N [Cimetidine, cimetidine]",failed to trans-stimulate,79.6,10,Trans-stimulation of OCT2-mediated MPP+ uptake [4]: failed to trans-stimulate
"NCCc1ccc(O)c(O)c1 [Dopamine, dopamine]",–,2390,10,–
"CNC[C@H](O)c1ccc(O)c(O)c1 [Epinephrine, epinephrine]",–,1490,1,–
"Nc1ccn([C@@H]2CS[C@H](CO)O2)c(=O)n1 [Lamivudine, lamivudine]",–,1900,–,Lowest trans-inhibiting concentration towards DiASP uptake [1]: 10 mM
"C[n+]1ccc(-c2ccccc2)cc1 [MPP^+, 1-methyl-4-phenyl pyridinium]",failed to trans-stimulate,–,–,"Trans-stimulation of OCT2-mediated MPP+ uptake [4]: failed to trans-stimulate; IC50 [2, 7]: 0.91 µM"
"CN(C)C(=N)N=C(N)N [Metformin, metformin]",trans-stimulate,1140,–,Trans-stimulation of OCT2 activity [4]: trans-stimulate; Trans-stimulation of DiASP uptake in control HEK-MOCK cells [5]: failed to significantly trans-stimulate
"COCCn1c2c([n+](Cc3cnccn3)c1C)C(=O)c1ccccc1C2=O [Sepantronium, sepantronium]",–,7.04,0.001,–
"NCCc1c[nH]c2ccc(O)cc12 [Serotonin, serotonin]",–,180,1,–
"CC[N+](CC)(CC)CC [TEA, tetra-ethylammonium]",–,–,–,"IC50 [2, 7]: 180 µM"
"Cc1ncc(C[n+]2csc(CCO)c2C)c(N)n1 [Thiamine, thiamine]",–,270,10,–
CN(C)CCC=C1c2ccccc2CCc2ccccc21 [amitriptyline],–,–,–,"Effect on metformin-stimulated uptake of DiASP ([1]; 100 µM amitriptyline during DiASP step, cells preloaded with 10 mM metformin 30 min): fully suppressed; Effect on uptake of DiASP in HEK-OCT2 cells not preloaded with metformin ([2]; 100 µM amitriptyline, 10 µM DiASP 5 min 37 °C): abolished"
